Assay results from US9427442B2, “Fluoroalkyl and fluorocycloalkyl 1,4-benzodiazepinone compounds” (BRISTOL-MYERS SQUIBB COMPANY, priority 2012, dated 2016).

Tests used:
human Notch 1 = assay: Notch-CBF1 Transactivation Assay (Notch 1); type: cell-based; details: read-out: Notch 1 (IC50); HeLa cells transfected with truncated Notch 1 and CBF1 luciferase reporter; 18 hours; average of N experiments
Excerpt: (§1) Notch-CBF1 Transactivation Assay
(§2) The Notch-CBF1 (C-promoter binding factor I) cell based transactivation assay is based on the ability of the released Notch intracellular domain fragments (NICDs) to function as transcription factors in conjunction with CBF1 and other nuclear factors. Luciferase assays were used to measure the antagonism of Notch-CBF1 transcriptional activity. HeLa cervical cancer cells are transiently co-transfected with pCDNA3.1/Hygro plasmids containing truncated Notch 1, Notch 2, Notch 3, or Notch 4 receptors and a PGL3 luciferase reporter vector containing 4 copies of CBF1 binding site. The cells were then tested for Notch-CBF1 activity in the absence or presence of test compounds. HeLa cells, maintained in DMEM (high glucose with HEPES), 1× glutamine/penicillin/streptomycin and 10% Fetal Bovine serum, were transiently transfected in a T175 Flask (4.5×10^6 cells/flask) using the Monster Transfection Kit (Minis #MIR2906) according to manufacturers specifications. Table 5 denotes respective DNA quantity for the transfections.
(§3) Assay media (5 μL) containing test compounds in final concentrations ranging from 5 μM to 8.4×10^−5 μM (3 fold serial dilutions) were added to the cells and the cell plates were then incubated for 18 hours at 37° C. and 5% CO2. Control wells contained DMSO vehicle (total counts) or 0.5 μM of an in-house small molecule inhibitor (background counts). Duplicates were used for each sample. Luciferase activity was measured after a 20-minute incubation with 50 μl STEADY-GLO® luciferase reagents according to manufacturer's specifications (Promega, Cat. #E2550) and analyzed by Envision plate reader (PerkinElmer, Boston, Mass.).
(§4) The antagonist effect of compounds was expressed as 100×[1−(average sample−average background)/(average total−average background)] where sample is the luciferase activity in the presence of test compound, background is equal to the luciferase activity in the presence of the small molecule inhibitor control and the total is signal induced in DMSO wells.

[1] = Human metabolic stability half-life assay; type: in vitro ADME; details: human liver microsomes, NADPH, 0.5 μM compound, 45-minute time course; for half-life at 0.5 µM: pH 7.4, read-out: HLM (t1/2, min)
Excerpt: Metabolic Stability Half-Life Panel

human Notch 3 = assay: Notch-CBF1 Transactivation Assay (Notch 3); type: cell-based; details: read-out: Notch 3 (IC50); HeLa cells transfected with truncated Notch 3 and CBF1 luciferase reporter; 18 hours; average of N experiments
Excerpt: as §1, §2, §3, §4

Compound	IC50 (human Notch 1) [nM]	half-life at 0.5 µM [1] [min]	IC50 (human Notch 3) [nM]	HLM (t1/2, min) [1] [min]
NC(=O)[C@@H](CC1CC(F)(F)C1)[C@@H](CCC(F)(F)F)C(=O)N[C@H]1N=C(c2ccccc2)c2cccc(Cl)c2NC1=O [Example 13, (2R,3S)—N-((3S)-9-Chloro-2-oxo-5-phenyl-2,3-dihydro-1H-1,4-benzodiazepin-3-yl)-3-((3,3-difluorocyclobutyl)methyl)-2-(3,3,3-trifluoropropyl)succinamide]	2.8	> 120	2.4	
CC(F)(F)C[C@H](C(N)=O)[C@@H](CCC(F)(F)F)C(=O)N[C@H]1N=C(c2ccccc2)c2ccccc2NC1=O [Example 18, (2R,3S)-3-(2,2-Difluoropropyl)-N-((3S)-2-oxo-5-phenyl-2,3-dihydro-1H-1,4-benzodiazepin-3-yl)-2-(3,3,3-trifluoropropyl)succinamide]	2.7	> 120	10.8	
NC(=O)[C@@H](CC1CC(F)(F)C1)[C@@H](CCC(F)(F)F)C(=O)N[C@H]1N=C(c2ccccc2)c2cccc(C3CC3)c2NC1=O [Example 12, (2R,3S)—N-((3S)-9-Cyclopropyl-2-oxo-5-phenyl-2,3-dihydro-1H-1,4-benzodiazepin-3-yl)-3-((3,3-difluorocyclobutyl)methyl)-2-(3,3,3-trifluoropropyl)succinamide]	5.6	41	4.3	
CCC[C@H](C(N)=O)[C@@H](CC(C)C)C(=O)N[C@H]1N=C(c2ccccc2)c2ccccc2N(C)C1=O [Comparative Compound 26, reference compound]				8
C[C@H](C[C@H](C(N)=O)[C@@H](CCC(F)(F)F)C(=O)N[C@H]1N=C(c2ccccc2)c2cccc(Cl)c2NC1=O)C(F)(F)F [Example 22, (2R,3S)—N-((3S)-9-Chloro-2-oxo-5-phenyl-2,3-dihydro-1H-1,4-benzodiazepin-3-yl)-3-((2R)-3,3,3-trifluoro-2-methylpropyl)-2-(3,3,3-trifluoropropyl)succinamide]	3.2	117	9.3	
COc1ccc2c(c1)NC(=O)[C@@H](NC(=O)[C@H](CCC(F)(F)F)[C@H](CCCF)C(N)=O)N=C2c1ccccc1 [Example 17, (2R,3S)-3-(3-Fluoropropyl)-N-((3S)-8-methoxy-2-oxo-5-phenyl-2,3-dihydro-1H-1,4-benzodiazepin-3-yl)-2-(3,3,3-trifluoropropyl)succinamide]	5.8	> 120	11	
CCCC[C@H](C(N)=O)[C@@H](CC(C)C)C(=O)N[C@H]1N=C(c2ccc(Cl)cc2)c2ccccc2N(C)C1=O [Comparative Compound 28, reference compound]				6
COc1cccc2c1NC(=O)[C@@H](NC(=O)[C@H](CCC(F)(F)F)[C@H](CC1CC(F)(F)C1)C(N)=O)N=C2c1ccccc1 [Example 8, (2R,3S)-3-((3,3-Difluorocyclobutyl)methyl)-N-((3S)-9-methoxy-2-oxo-5-phenyl-2,3-dihydro-1H-1,4-benzodiazepin-3-yl)-2-(3,3,3-trifluoropropyl)succinamide]	2.9	58	4	
Cc1cccc(C2=N[C@H](NC(=O)[C@H](CCC(F)(F)F)[C@H](CC3CC(F)(F)C3)C(N)=O)C(=O)Nc3c(F)cccc32)c1 [Example 11, (2R,3S)-3-((3,3-Difluorocyclobutyl)methyl)-N-((3S)-9-fluoro-5-(3-methylphenyl)-2-oxo-2,3-dihydro-1H-1,4-benzodiazepin-3-yl)-2-(3,3,3-trifluoropropyl)succinamide]	2.1	46	2.2	
NC(=O)[C@@H](C1CCC(C(F)(F)F)CC1)[C@@H](CCC(F)(F)F)C(=O)N[C@H]1N=C(c2ccccc2)c2cccc(Cl)c2NC1=O (stereo partly drawn) [Example 4, (2R,3S)—N-((3S)-9-Chloro-2-oxo-5-phenyl-2,3-dihydro-1H-1,4-benzodiazepin-3-yl)-3-(4-(trifluoromethyl)cyclohexyl)-2-(3,3,3-trifluoropropyl)succinamide]	11.9	> 120	21.2	
NC(=O)[C@@H](C1CCC(F)(F)CC1)[C@@H](CCC(F)(F)F)C(=O)N[C@H]1N=C(c2ccccc2)c2cccc(Cl)c2NC1=O [Example 5, (2R,3S)—N-((3S)-9-Chloro-2-oxo-5-phenyl-2,3-dihydro-1H-1,4-benzodiazepin-3-yl)-3-(4,4-difluorocyclohexyl)-2-(3,3,3-trifluoropropyl)succinamide]	4.4	72	7.3	
NC(=O)[C@@H](C1CCC(F)(F)CC1)[C@@H](CCC(F)(F)F)C(=O)N[C@H]1N=C(c2cccc(F)c2)c2cccc(OC3CC3)c2NC1=O [Example 3, (2R,3S)—N-((3S)-9-(Cyclopropyloxy)-5-(3-fluorophenyl)-2-oxo-2,3-dihydro-1H-1,4-benzodiazepin-3-yl)-3-(4,4-difluorocyclohexyl)-2-(3,3,3-trifluoropropyl)succinamide]	4.2	80	8.9	
C=CC[C@H](C(N)=O)[C@@H](CC(C)C)C(=O)N[C@H]1N=C(c2ccccc2)c2ccccc2N(CCC)C1=O [Comparative Compound 29, reference compound]				3
C[C@@H](C[C@H](C(N)=O)[C@@H](CCC(F)(F)F)C(=O)N[C@H]1N=C(c2ccccc2)c2cccc(F)c2NC1=O)C(F)(F)F [Example 19, (2R,3S)—N-((3S)-9-Fluoro-2-oxo-5-phenyl-2,3-dihydro-1H-1,4-benzodiazepin-3-yl)-3-((2S)-3,3,3-trifluoro-2-methylpropyl)-2-(3,3,3-trifluoropropyl)succinamide]	2.9	80	2.4	
COc1cccc2c1NC(=O)[C@@H](NC(=O)[C@H](CCC(F)(F)F)[C@@H](C(N)=O)C1CCC(F)(F)CC1)N=C2c1ccccc1 [Example 2, (2R,3S)-3-(4,4-Difluorocyclohexyl)-N-((3S)-9-methoxy-2-oxo-5-phenyl-2,3-dihydro-1H-1,4-benzodiazepin-3-yl)-2-(3,3,3-trifluoropropyl)succinamide]	7	43	6	
C=CC[C@H](C(N)=O)[C@@H](CC(C)C)C(=O)N[C@H]1N=C(c2ccccc2)c2cc(Cl)ccc2N(C)C1=O [Comparative Compound 27, reference compound]				6
NC(=O)[C@@H](CCCF)[C@@H](CCC(F)(F)F)C(=O)N[C@H]1N=C(c2ccccc2)c2cccc(Cl)c2NC1=O [Example 20, (2R,3S)—N-((3S)-9-Chloro-2-oxo-5-phenyl-2,3-dihydro-1H-1,4-benzodiazepin-3-yl)-3-(3-fluoropropyl)-2-(3,3,3-trifluoropropyl)succinamide]	10.8	107	16.5	
Cc1cccc2c1NC(=O)[C@@H](NC(=O)[C@H](CCC(F)(F)F)[C@H](CC1(F)CCC1)C(N)=O)N=C2c1ccccc1 [Example 25, (2R,3S)-3-((1-Fluorocyclobutyl)methyl)-N-((3S)-9-methyl-2-oxo-5-phenyl-2,3-dihydro-1H-1,4-benzodiazepin-3-yl)-2-(3,3,3-trifluoropropyl)succinamide]	3.8	33	20.1	
